The supplement of paper PMC10307832

Tests used:
Experiment in all cases: relative viability (nuclei count vs DMSO), 5 days (fraction); higher = more cells survive
201T = test system: 201T
Method in brief: (§1)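 Lung cancer cell lines were pin-tool dosed in 1536-well plates on the day after seeding, with either a lone drug or a fixed anchor-drug dose plus five library-drug doses (not always all listed) in √10 steps. Nuclei were counted on 4× images after 5 days. Relative viability is the ratio of treated-well to vehicle-well nuclei counts, with each value a median of duplicate plates.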

A-427 = test system: A-427
Method in brief: as §1

BEN = test system: BEN
Method in brief: as §1

COR-L23 = test system: COR-L23
Method in brief: as §1

EKVX = test system: EKVX
Method in brief: as §1

HARA = test system: HARA
Method in brief: as §1

HCC-15 = test system: HCC-15
Method in brief: as §1

HCC-44 = test system: HCC-44
Method in brief: as §1

HCC-827 = test system: HCC-827
Method in brief: as §1

NCI-H1437 = test system: NCI-H1437
Method in brief: as §1

## O=c1cc(-c2cccc3c2Sc2ccccc2S3)oc(N2CCOCC2)c1 + CS(=O)(=O)CCNCc1ccc(-c2ccc3ncnc(Nc4ccc(OCc5cccc(F)c5)c(Cl)c4)c3c2)o1 [Lapatinib] (partner 2 µM)
201T; first compound 0.08 µM
  relative viability: 1.02
201T; first compound 0.253 µM
  relative viability: 1.09
201T; first compound 0.8 µM
  relative viability: 0.915
201T; first compound 2.53 µM
  relative viability: 0.951
201T; first compound 8 µM
  relative viability: 1
A-427; first compound 0.08 µM
  relative viability: 1.06
A-427; first compound 0.253 µM
  relative viability: 1.05
A-427; first compound 0.8 µM
  relative viability: 1.08
A-427; first compound 2.53 µM
  relative viability: 0.868
A-427; first compound 8 µM
  relative viability: 1.12
BEN; first compound 0.08 µM
  relative viability: 0.703
BEN; first compound 0.253 µM
  relative viability: 0.706
BEN; first compound 0.8 µM
  relative viability: 0.81
BEN; first compound 2.53 µM
  relative viability: 0.734
BEN; first compound 8 µM
  relative viability: 1.05
COR-L23; first compound 0.08 µM
  relative viability: 1.1
COR-L23; first compound 0.253 µM
  relative viability: 1.67
COR-L23; first compound 0.8 µM
  relative viability: 0.962
COR-L23; first compound 2.53 µM
  relative viability: 0.836
COR-L23; first compound 8 µM
  relative viability: 1.09
EKVX; first compound 0.08 µM
  relative viability: 0.226
EKVX; first compound 0.253 µM
  relative viability: 0.186
EKVX; first compound 0.8 µM
  relative viability: 0.166
EKVX; first compound 2.53 µM
  relative viability: 0.186
EKVX; first compound 8 µM
  relative viability: 0.202
HARA; first compound 0.08 µM
  relative viability: 0.662
HARA; first compound 0.253 µM
  relative viability: 0.751
HARA; first compound 0.8 µM
  relative viability: 0.562
HARA; first compound 2.53 µM
  relative viability: 0.632
HARA; first compound 8 µM
  relative viability: 0.719
HCC-15; first compound 0.08 µM
  relative viability: 0.885
HCC-15; first compound 0.253 µM
  relative viability: 1.02
HCC-15; first compound 0.8 µM
  relative viability: 0.873
HCC-15; first compound 2.53 µM
  relative viability: 0.82
HCC-15; first compound 8 µM
  relative viability: 0.988
HCC-44; first compound 0.08 µM
  relative viability: 1.05
HCC-44; first compound 0.253 µM
  relative viability: 1.21
HCC-44; first compound 0.8 µM
  relative viability: 0.977
HCC-44; first compound 2.53 µM
  relative viability: 0.928
HCC-44; first compound 8 µM
  relative viability: 1.14
HCC-827; first compound 0.08 µM
  relative viability: 0.189
HCC-827; first compound 0.253 µM
  relative viability: 0.196
HCC-827; first compound 0.8 µM
  relative viability: 0.168
HCC-827; first compound 2.53 µM
  relative viability: 0.189
HCC-827; first compound 8 µM
  relative viability: 0.178
NCI-H1437; first compound 0.08 µM
  relative viability: 0.782
NCI-H1437; first compound 0.253 µM
  relative viability: 1.2
NCI-H1437; first compound 0.8 µM
  relative viability: 0.817
NCI-H1437; first compound 2.53 µM
  relative viability: 0.751
